For this test, the target named is BaIMPDHΔL. The class given is biochemical, Bacillus anthracis. The note with it: read-out: k−7/k7, equilibrium dissociation constant of NAD+ substrate inhibition.

Regarding `NC(=O)c1ccc[n+]([C@@H]2O[C@H](COP(=O)([O-])OP(=O)(O)OC[C@H]3O[C@@H](n4cnc5c(N)ncnc54)[C@H](O)[C@@H]3O)[C@@H](O)[C@H]2O)c1` [NAD^+], the Kd is 5.5 mM.

The values are drawn from PMC5524190 (Biochemistry, 2016).
